This is an account of results in paper PMC7168933, “Design, Synthesis and Biochemical Evaluation of Novel Ethanoanthracenes and Related Compounds to Target Burkitt’s Lymphoma” (Pharmaceuticals, 2020).

The subject of data set [1] is DG-75 Burkitt lymphoma cell line (EBV−, chemoresistant). Nature of the data set: cells. The conditions noted are these: Homo sapiens, DG-75, 48 h.
In data set [2] the test system is MUTU-1 Burkitt lymphoma cell line (EBV+). The data set can be described thus: cells. Particulars: Mutu-1, 24 h; for IC50: read-out: IC50 MUTU-I 24 h.
The mark [3] stands for this setting: read-out: DG-75 Cell Viability % 1 μM, 1 μM, 48 h.
[4] abbreviates: read-out: DG-75 Cell Viability % 10 μM, 10 μM, 48 h.
Where [5] appears, read: read-out: MUTU-1 Cell Viability % 1 μM, 1 μM, 24 h.
Where [6] appears, read: read-out: MUTU-1 Cell Viability % 10 μM, 10 μM, 24 h.

Where two headings read alike, the source gives them in different places.

Take `CN(C)CCCN1c2ccccc2Sc2ccc(Cl)cc21` [Compound 5]: the viability at 1 µM in data set [1] (setting [3]) lay within 6 to 28%. In addition, the viability at 0.5 µM in data set [1] (read-out: viable cells in DG-75 at 0.5 µM, 0.5 µM, 48 h) fell in the range of 18 to 57%.
One may read the melting point as the temperature, or range, at which the solid turns liquid. Molecule `CC/C(=C\C12c3ccccc3C(c3ccccc31)C1C(=O)OC(=O)C12)[N+](=O)[O-]` (stereo not shown) [Compound 13c, (E)-9-(2-Nitrobut-1-en-1-yl)-9,10-dihydro-9,10-[3,4]furanoanthracene-12,14-dione] had a melting point of 230 to 233 °C. The viability at 1 µM in data set [1] (setting [3]) stood at 68%. Besides, in data set [1] (setting [4]), the viability at 10 µM was 80.7%. In data set [2] (setting [5]), the viability at 1 µM was determined as 64.1%. Also, the viability at 10 µM in data set [2] (setting [6]) was found to be 74.1%.
On the same counts, the results for `O=C1OC(=O)C2C1C1(Cl)c3ccccc3C2(/C=C/[N+](=O)[O-])c2ccccc21` (stereo not shown) [Compound 13d, (E)-9-Chloro-10-(2-nitrovinyl)-9,10-dihydro-9,10-[3,4]furanoanthracene-12,14-dione] are 275 to 277 °C, 98.7%, 102%, 35.6% and 43.5%.
On the same counts, the results for `C/C(=C\C12c3ccccc3C(Cl)(c3ccccc31)C1C(=O)OC(=O)C12)[N+](=O)[O-]` (stereo not shown) [Compound 13e, (E)-9-Chloro-10-(2-nitroprop-1-en-1-yl)-9,10-dihydro-9,10-[3,4]furanoanthracene-12,14-dione] are 270 to 272 °C, 78.2%, 98.2%, 83.3% and 101%.
On the same counts, the results for `CC/C(=C\C12c3ccccc3C(Cl)(c3ccccc31)C1C(=O)OC(=O)C12)[N+](=O)[O-]` (stereo not shown) [Compound 13f, (E)-9-Chloro-10-(2-nitrobut-1-en-1-yl)-9,10-dihydro-9,10-[3,4]furanoanthracene-12,14-dione] are 259 to 263 °C, 79.9%, 95.1%, 85.3% and 91.6%.
In the case of `C/C(=C\C12c3ccccc3C(c3ccccc31)C1C(=O)NC(=O)C12)[N+](=O)[O-]` (stereo not shown) [Compound 13h, (E)-9-(2-Nitroprop-1-en-1-yl)-9,10-dihydro-9,10-[3,4]epipyrroloanthracene-12,14-dione], the melting point lay in the range of 296 to 300 °C. Besides, the viability at 1 µM in data set [1] (setting [3]) turned out to be 106%. Moreover, the viability at 10 µM in data set [1] (setting [4]) came to 101%. For the same molecule, the viability at 1 µM in data set [2] (setting [5]) was found to be 99.7%. Besides, in data set [2] (setting [6]), the viability at 10 µM is 82.6%.
In the case of `CC/C(=C\C12c3ccccc3C(c3ccccc31)C1C(=O)NC(=O)C12)[N+](=O)[O-]` (stereo not shown) [Compound 13i, (E)-9-(2-Nitrobut-1-en-1-yl)-9,10-dihydro-9,10-[3,4]epipyrroloanthracene-12,14-dione], the melting point is 296 to 298 °C. In addition, the viability at 1 µM in data set [1] (setting [3]) is 96.3%. In data set [1] (setting [4]), the viability at 10 µM turned out to be 89.4%. For the same molecule, in data set [2] (setting [5]), the viability at 1 µM was found to be 91.1%. The viability at 10 µM in data set [2] (setting [6]) came to 73%.
Take `C/C(=C\C12c3ccccc3C(Cl)(c3ccccc31)C1C(=O)NC(=O)C12)[N+](=O)[O-]` (stereo not shown) [Compound 13k, (E)-9-Chloro-10-(2-nitroprop-1-en-1-yl)-9,10-dihydro-9,10-[3,4]epipyrroloanthracene-12,14-dione]: the melting point was 295 to 297 °C. Further, in data set [1] (setting [3]), the viability at 1 µM turned out to be 78.2%. Besides, the viability at 10 µM in data set [1] (setting [4]) was determined as 101%. Also, the viability at 1 µM in data set [2] (setting [5]) was 83.3%. Also, the viability at 10 µM in data set [2] (setting [6]) stood at 51.6%.
On the same counts, the results for `CC/C(=C\C12c3ccccc3C(Cl)(c3ccccc31)C1C(=O)NC(=O)C12)[N+](=O)[O-]` (stereo not shown) [Compound 13l, (E)-9-Chloro-10-(2-nitrobut-1-en-1-yl)-9,10-dihydro-9,10-[3,4]epipyrroloanthracene-12,14-dione] are 294 to 298 °C, 90%, 102%, 88.6% and 88.3%.
In turn, `O=C1OC(=O)C2C1C1c3ccccc3C2(CC[N+](=O)[O-])c2ccccc21` (stereo not shown) [Compound 14a, 9-(2-Nitroethyl)-9,10-dihydro-9,10-[3,4]furanoanthracene-12,14-dione] gave a melting point of 242 to 244 °C. Moreover, the viability at 1 µM in data set [1] (setting [3]) came out at 83%. In data set [1] (setting [4]), the viability at 10 µM was determined as 102%. For the same molecule, in data set [2] (setting [5]), the viability at 1 µM worked out at 76.7%. Also, the viability at 10 µM in data set [2] (setting [6]) came out at 99.3%.
`O=C1NC(=O)C2C1C1c3ccccc3C2(CC[N+](=O)[O-])c2ccccc21` (stereo not shown) [Compound 14b, 9-(2-Nitroethyl)-9,10-dihydro-9,10-[3,4]epipyrroloanthracene-12,14-dione] returned a melting point of 295 to 297 °C. In data set [1] (setting [3]), the viability at 1 µM is 79.3%. Further, the viability at 10 µM in data set [1] (setting [4]) turned out to be 101%. Also, the viability at 1 µM in data set [2] (setting [5]) was 58.5%. For the same molecule, the viability at 10 µM in data set [2] (setting [6]) amounted to 95%.
On the same counts, the results for `O=C1C2C3c4ccccc4C(CC[N+](=O)[O-])(c4ccccc43)C2C(=O)N1c1ccccc1` (stereo not shown) [Compound 14c, 9-(2-Nitroethyl)-13-phenyl-9,10-dihydro-9,10-[3,4]epipyrroloanthracene-12,14-dione] are 248 to 250 °C, 75.7%, 81.4%, 75.5% and 79.2%.
Usually IC50 stands for the concentration that gives 50% inhibition. For the molecule `O=C1C2C3c4ccccc4C(/C=C/[N+](=O)[O-])(c4ccccc43)C2C(=O)N1c1ccc(F)cc1` (stereo not shown) [Compound 16e, (E)-13-(4-Fluorophenyl)-9-(2-nitrovinyl)-9,10-dihydro-9,10-[3,4]epipyrroloanthracene-12,14-dione], the melting point fell in the range of 242 to 243 °C. Moreover, the viability at 1 µM in data set [1] (setting [3]) worked out at 35.4%. The viability at 10 µM in data set [1] (setting [4]) was found to be 2.3%. Moreover, the IC50 in data set [2] was 250 nM. Moreover, the viability at 1 µM in data set [2] (setting [5]) was 0.07%. Besides, the viability at 10 µM in data set [2] (setting [6]) was found to be 1.4%.
For `CCOC(=O)C1CC2c3ccccc3C1(/C=C/[N+](=O)[O-])c1ccccc12` (stereo not shown) [Compound 19b, Ethyl (E)-10-(2-nitrovinyl)-9,10-dihydro-9,10-ethanoanthracene-11-carboxylate], the viability at 1 µM stood at 9.8% in data set [1] (setting [3]) and 48.9% in data set [2] (setting [5]). The viability at 10 µM came out at 13.4% in data set [1] (setting [4]) and 0.69% in data set [2] (setting [6]).
As for `COC(=O)C1CC2c3ccccc3C1(/C=C/[N+](=O)[O-])c1ccccc12` (stereo not shown) [Compound 19c, Methyl (E)-10-(2-nitrovinyl)-9,10-dihydro-9,10-ethanoanthracene-11-carboxylate], the viability at 1 µM in data set [1] (setting [3]) was found to be 92.2%; in data set [2] (setting [5]), 15.6%. The viability at 10 µM stood at 1.4% in data set [1] (setting [4]) and 8.4% in data set [2] (setting [6]). Further, the concentration for half-maximal inhibition (IC50) in data set [2] turned out to be 540 nM.
As to `O=C1OC(=O)C2C3c4ccccc4C(c4ccccc43)C12` (stereo not shown) [Compound 21a], the viability at 1 µM in data set [1] (setting [3]) was determined as 91.4%; in data set [2] (setting [5]) it was 103%. Further, the figures for the viability at 10 µM in data set [1] (setting [4]) and in data set [2] (setting [6]) were 69.9% and 93.1%, respectively.
As to `O=CC12c3ccccc3C(c3ccccc31)C1C(=O)OC(=O)C12` (stereo not shown) [Compound 21d], the viability at 1 µM came out at 64.8% in data set [1] (setting [3]) and 87.4% in data set [2] (setting [5]). The viability at 10 µM was 64.7% in data set [1] (setting [4]) and 88.4% in data set [2] (setting [6]).
For `O=CC12c3ccccc3C(c3ccccc31)C1C(=O)NC(=O)C12` (stereo not shown) [Compound 21e] the same measures were 76%, 96.1%, 71.2% and 95.1%.
In the case of `O=CC12c3ccccc3C(c3ccccc31)C1C(=O)N(c3ccccc3)C(=O)C12` (stereo not shown) [Compound 21f], the viability at 1 µM in data set [1] (setting [3]) and in data set [2] (setting [5]) was 102% each time. In addition, the figures for the viability at 10 µM in data set [1] (setting [4]) and in data set [2] (setting [6]) were 72.4% and 77.7%, respectively.
As for `O=C1OC(=O)C2C1C1c3ccccc3C2(C(=O)O)c2ccccc21` (stereo not shown) [Compound 21g], the values for the viability at 1 µM in data set [1] (setting [3]) and in data set [2] (setting [5]) were 93.1% and 99.2%, respectively. For the same molecule, the viability at 10 µM in data set [1] (setting [4]) is 65.4%; in data set [2] (setting [6]) it was 88.8%.
On the same counts, the results for `O=C1NC(=O)C2C1C1c3ccccc3C2(C(=O)O)c2ccccc21` (stereo not shown) [Compound 21h] are 86.3%, 92.6%, 73.1% and 92%.
On the same counts, the results for `O=C1C2C3c4ccccc4C(C(=O)O)(c4ccccc43)C2C(=O)N1c1ccccc1` (stereo not shown) [Compound 21i] are 73.2%, 103%, 67.5% and 92.5%.
On the same counts, the results for `O=C1OC(=O)C2C1C1c3ccccc3C2(O)c2ccccc21` (stereo not shown) [Compound 21j] are 68%, 103%, 93% and 100%.
In the case of `N/N=C/C12c3ccccc3C(c3ccccc31)C1C(=O)N(c3ccccc3)C(=O)C12` (stereo not shown) [Compound 23h, (E)-9-(Hydrazonomethyl)-13-phenyl-9,10-dihydro-9,10-[3,4]epipyrroloanthracene-12,14-dione], the viability at 1 µM turned out to be 85.8% in data set [1] (setting [3]) and 91.1% in data set [2] (setting [5]). In addition, the viability at 10 µM amounted to 87.4% in data set [1] (setting [4]) and 78% in data set [2] (setting [6]).
In the case of `CNCCCC12CCC(c3ccccc31)c1ccccc12` [Maprotiline 8, maprotiline, reference compound], the results for the viability at 1 µM in data set [1] (read-out: DG-75 Cell Viability % 1 μM) and in data set [2] (read-out: MUTU-1 Cell Viability % 1 μM) were 102% and 93.1%, respectively. For the same molecule, the values for the viability at 10 µM in data set [1] (read-out: DG-75 Cell Viability % 10 μM) and in data set [2] (read-out: MUTU-1 Cell Viability % 10 μM) were 65.1% and 73%, respectively.
